Experimental data as given in patent publication US20200392116A1, “SUBSTITUTED HETEROCYCLES AS c-MYC TARGETING AGENTS” (NORTHWESTERN UNIVERSITY, priority 2019, published 2020).
Like-named read-outs stand apart in the source and are kept apart here.

What was measured:
[1] = test system: MYC transcriptional activity (c-Myc E-box-luciferase reporter, MycCap cells); assay: MYC E-box luciferase reporter assay; format: cell-based; details: Mus musculus, Myc-CaP
Method: To test the compounds, we evaluated the in silico hits in a MYC E-Box luciferase reporter assay to measure the effects of these compounds (referred to as Min-1 to Min-32) on MYC transcriptional activity. […] (See FIG. 2).
MycCap cells stably expressing luciferase with CMV promoter (MycCap-luc) or c-Myc E-box-luciferase reporter (MycCap Ebox-luc) were plated at 10000 cells per well in 96 well white-wall plate. Serial dilutions of 361 were treated next day. At 4 hours of treatment, luminescence signal was determined immediately after adding 150 μg/ml of Luciferin to the well. (See FIG. 12).

CMV reporter = CMV reporter assay (control reporter beside the Ebox reporter); format: cell-based
[2] = class symbols, read-out: Ebox reporter: IC50
[3] = given as numeric bound, read-out: Ebox reporter: IC50
[4] = class symbols, read-out: Eboc reporter IC50

| SMILES | IC50 [1, 2] [µM] | IC50 (CMV reporter) [µM] | IC50 [1, 3] [µM] | IC50 [1, 4] [µM] | IC50 (CMV reporter; class symbols) [µM] |
| --- | --- | --- | --- | --- | --- |
| Cn1nc(C(F)(F)F)c(Oc2ccc(Cl)c(F)c2)c1-c1ccc(OCc2ccc(Cl)cc2)cc1O [NUCC-0202537] | 5 to 10 | 40 | – | – | – |
| CN(C)C(=O)c1cc(-c2ccc(OCc3ccc(Cl)cc3)c(-c3ccc(Cl)c(C(F)(F)F)c3)c2O)nn1C [NUCC-0202531] | – | > 50 | > 50 | – | – |
| Cn1nc(-c2cc(Cl)c(OCc3ccc(Cl)cc3)c(-c3ccc(Cl)c(C(F)(F)F)c3)c2O)cc1C(F)(F)F [NUCC-0202642] | – | > 50 | > 50 | – | – |
| Cn1nc(-c2c(Cl)cc(OCc3ccc(Cl)cc3)c(-c3ccc(Cl)c(C(F)(F)F)c3)c2O)cc1C(F)(F)F [NUCC-0202988] | – | – | – | > 50 | > 50 |
| Cn1nc(-c2ccc(OC3CCOCC3)c(-c3ccc(Cl)c(C(F)(F)F)c3)c2O)cc1C(F)(F)F [NUCC-0202428] | – | > 50 | > 50 | – | – |
| Cc1cc(-c2ccc(OCc3ccc(Cl)cc3)c(-c3ccc(Cl)c(C(F)(F)F)c3)c2O)nn1C [NUCC-0202534] | – | > 50 | > 50 | – | – |
| Cn1nc(-c2ccc(N(Cc3ccc(Cl)cc3)C(=O)c3cncc(C(F)(F)F)c3)cc2O)cc1C(F)(F)F [NUCC-0202689] | – | > 50 | > 50 | – | – |
| O=c1cc(C(F)(F)F)oc2cc(NCc3ccc(Cl)cc3)ccc12 [NUCC-0202436] | 10 to 50 | > 50 | – | – | – |
| Cn1nc(-c2ccc(OCc3ccc(Cl)cc3)c(Oc3ccc(F)cn3)c2O)cc1C(F)(F)F [NUCC-0202422] | – | > 50 | > 50 | – | – |
| Cn1nc(C(F)(F)F)cc1-c1ccc(OCc2ccc(Cl)cc2)c(-c2ccc(Cl)c(C(F)(F)F)c2)c1O [NUCC-0202538] | – | > 50 | > 50 | – | – |
| Cn1nc(C(F)(F)F)cc1-c1ccc(N(Cc2ccc(Cl)cc2)C(=O)c2ccc3nccn3c2)cc1O [NUCC-0202693] | < 5 | > 50 | – | – | – |
| Cc1cc(-c2ccc(OCc3ccc(Cl)cc3)c(-c3ccc(Cl)c(C(F)(F)F)c3)c2O)n(C)n1 [NUCC-0202533] | 10 to 50 | > 50 | – | – | – |
| Cn1nc(C(F)(F)F)cc1-c1ccc(N(Cc2ccc(Cl)cc2)C(=O)c2ccc(Cl)cc2)cc1O [NUCC-0202703] | < 5 | > 50 | – | – | – |
| Cn1nc(C(F)(F)F)cc1-c1ccc(C(=O)Nc2ccc(Cl)c(C(F)(F)F)c2)cc1O [NUCC-0202984] | – | – | – | < 5 | 10 to 50 |
| Cn1nc(C(F)(F)F)cc1-c1ccc(N(Cc2ccc(Cl)cc2)C(=O)c2ccc(C(F)(F)F)cc2Cl)cc1O [NUCC-0202720] | 5 to 10 | > 50 | – | – | – |
| COc1c(C(F)(F)F)n[nH]c1-c1ccc(OCc2ccc(Cl)cc2)cc1O [NUCC-0202639] | 5 to 10 | 32 | – | – | – |
| Cn1nc(C(=O)O)cc1-c1ccc(OCc2ccc(Cl)cc2)c(-c2ccc(Cl)c(C(F)(F)F)c2)c1O [NUCC-0202524] | 10 to 50 | > 50 | – | – | – |
| Cn1nc(-c2ccc(CNc3ccc(Cl)c(C(F)(F)F)c3)cc2O)cc1C(F)(F)F [NUCC-0202981] | – | – | – | 10 to 50 | > 50 |
| Cc1cc(-c2ccc(OCc3ccc(Cl)cc3)c(-c3ccc(Cl)c(C(F)(F)F)c3)c2O)[nH]n1 [NUCC-0202532] | 10 to 50 | > 50 | – | – | – |

| SMILES | IC50 [1, 2] [µM] | IC50 (CMV reporter) [µM] | IC50 [1, 3] [µM] | IC50 [1, 4] [µM] | IC50 (CMV reporter; class symbols) [µM] |
| --- | --- | --- | --- | --- | --- |
| Cn1nc(C(F)(F)F)cc1-c1ccc(COc2ccc(Cl)cc2)c(-c2ccc(Cl)c(C(F)(F)F)c2)c1O [NUCC-0202416] | < 5 | > 50 | – | – | – |
| Cn1nc(-c2ccc(N(Cc3ccc(Cl)cc3)C(=O)c3ccc(C(F)(F)F)cc3)cc2O)cc1C(F)(F)F [NUCC-0202714] | – | > 50 | > 50 | – | – |
| Oc1c(-c2cc(C(F)(F)F)n[nH]2)cc(Cl)c(OCc2ccc(Cl)cc2)c1-c1ccc(Cl)c(C(F)(F)F)c1 [NUCC-0202649] | < 5 | > 50 | – | – | – |
| Cn1nc(C(F)(F)F)cc1-c1ccc(CNc2ccc(Cl)c(C(F)(F)F)c2)cc1O [NUCC-0202980] | – | – | – | 10 to 50 | 10 to 50 |
| Cn1nc(-c2ccc(CNc3ccc(Cl)cc3)c(-c3ccc(Cl)c(C(F)(F)F)c3)c2O)cc1C(F)(F)F [NUCC-0202417] | – | > 50 | > 50 | – | – |
| Cn1nc(C(F)(F)F)cc1-c1ccc(NC(=O)c2ccc(Cl)c(C(F)(F)F)c2)cc1O [NUCC-0202690] | < 5 | > 50 | – | – | – |
| Cn1nc(C(F)(F)F)cc1-c1ccc(N(Cc2ccc(Cl)cc2)C(=O)c2cncc(C(F)(F)F)c2)cc1O [NUCC-0202688] | 5 to 10 | > 50 | – | – | – |
| Cn1nc(-c2ccc(N(Cc3ccc(Cl)cc3)C(=O)c3ccc(F)c(F)c3)cc2O)cc1C(F)(F)F [NUCC-0202707] | – | > 50 | > 50 | – | – |
| Oc1cc(-c2ccc(OCc3ccc(Cl)cc3)c(-c3ccc(Cl)c(C(F)(F)F)c3)c2O)[nH]n1 [NUCC-0202535] | 10 to 50 | > 50 | – | – | – |
| Cn1nc(-c2ccc(NC(=O)c3ccc(Cl)c(C(F)(F)F)c3)cc2O)cc1C(F)(F)F [NUCC-0202691] | – | > 50 | > 50 | – | – |
| Cn1nc(C(F)(F)F)cc1-c1ccc(OC2CCNCC2)c(-c2ccc(Cl)c(C(F)(F)F)c2)c1O [NUCC-0202431] | 10 to 50 | 39 | – | – | – |
| CCOC(=O)c1cc(-c2ccc(OCc3ccc(Cl)cc3)c(-c3ccc(Cl)c(C(F)(F)F)c3)c2O)[nH]n1 [NUCC-0202530] | 10 to 50 | > 50 | – | – | – |
| Cn1nc(-c2ccc(OCc3ccc(Cl)cc3)c(-c3ccc(Cl)c(C(F)(F)F)c3)c2O)cc1O [NUCC-0202644] | 10 to 50 | > 50 | – | – | – |
| Oc1c(-c2cc(C(F)(F)F)n[nH]2)cc(F)c(OCc2ccc(Cl)cc2)c1-c1ccc(Cl)c(C(F)(F)F)c1 [NUCC-0202687] | < 5 | > 50 | – | – | – |
| Cn1nc(C(F)(F)F)cc1-c1ccc(N(Cc2ccc(Cl)cc2)C(=O)c2cccc(Cl)c2)cc1O [NUCC-0202704] | < 5 | > 50 | – | – | – |
| Cn1nc(-c2ccc(COc3ccc(Cl)cc3)c(-c3ccc(Cl)c(C(F)(F)F)c3)c2O)cc1C(F)(F)F [NUCC-0202421] | – | > 50 | > 50 | – | – |
| COc1ccc(-c2cc(C(F)(F)F)n(C)n2)c(O)c1-c1ccc(Cl)c(C(F)(F)F)c1 [NUCC-0202430] | – | > 50 | > 50 | – | – |
| Cn1nc(C(F)(F)F)cc1-c1ccc(N(Cc2ccc(Cl)cc2)C(=O)c2ccc(F)c(F)c2)cc1O [NUCC-0202706] | < 5 | > 50 | – | – | – |
| Cn1nc(C(F)(F)F)cc1-c1ccc(OCc2ccc(Cl)cc2)c(-c2ccc(Cl)c(C(F)(F)F)c2)c1Cl [NUCC-0202650] | – | > 50 | > 50 | – | – |

| SMILES | IC50 [1, 2] [µM] | IC50 (CMV reporter) [µM] | IC50 [1, 3] [µM] | IC50 [1, 4] [µM] | IC50 (CMV reporter; class symbols) [µM] |
| --- | --- | --- | --- | --- | --- |
| Cn1nc(-c2ccc(N(Cc3ccc(Cl)cc3)C(=O)c3ccc(F)cc3)cc2O)cc1C(F)(F)F [NUCC-0202701] | – | > 50 | > 50 | – | – |
| Cn1nc(C(F)(F)F)cc1-c1ccc(CNc2ccc(Cl)cc2)c(-c2ccc(Cl)c(C(F)(F)F)c2)c1O [NUCC-0202414] | 5 to 10 | > 50 | – | – | – |
| Cn1nc(C(F)(F)F)cc1-c1ccc(N(Cc2ccc(Cl)cc2)C(=O)c2cncc(C#N)c2)cc1O [NUCC-0202724] | 5 to 10 | > 50 | – | – | – |
| CNC(=O)c1cc(-c2ccc(OCc3ccc(Cl)cc3)c(-c3ccc(Cl)c(C(F)(F)F)c3)c2O)[nH]n1 [NUCC-0202522] | 10 to 50 | 43 | – | – | – |
| Cn1nc(-c2ccc(N(Cc3ccc(Cl)cc3)C(=O)c3cccc(Cl)c3)cc2O)cc1C(F)(F)F [NUCC-0202699] | – | > 50 | > 50 | – | – |
| Cn1nc(-c2ccc(N(Cc3ccc(Cl)cc3)C(=O)c3ccc(C(F)(F)F)c(Cl)c3)cc2O)cc1C(F)(F)F [NUCC-0202424] | – | > 50 | > 50 | – | – |
| COc1cccc(C(=O)N(Cc2ccc(Cl)cc2)c2ccc(-c3cc(C(F)(F)F)n(C)n3)c(O)c2)c1 [NUCC-0202695] | – | > 50 | > 50 | – | – |
| CN(C)C(=O)c1cc(-c2ccc(OCc3ccc(Cl)cc3)c(-c3ccc(Cl)c(C(F)(F)F)c3)c2O)[nH]n1 [NUCC-0202523] | – | > 50 | > 50 | – | – |
| Oc1c(-c2cc(C(F)(F)F)n[nH]2)c(Cl)cc(OCc2ccc(Cl)cc2)c1-c1ccc(Cl)c(C(F)(F)F)c1 [NUCC-0202986] | – | – | – | < 5 | 10 to 50 |
| Cn1nc(-c2ccc(N(Cc3ccc(Cl)cc3)C(=O)c3ccc(Cl)cc3C(F)(F)F)cc2O)cc1C(F)(F)F [NUCC-0202710] | – | > 50 | > 50 | – | – |
| Cn1nc(C(F)(F)F)cc1-c1ccc(N(Cc2ccc(Cl)cc2)C(=O)c2ccccc2C(F)(F)F)cc1O [NUCC-0202723] | 5 to 10 | > 50 | – | – | – |
| Cn1nc(C(F)(F)F)cc1-c1ccc(OC2CCOCC2)c(-c2ccc(Cl)c(C(F)(F)F)c2)c1O [NUCC-0202427] | 10 to 50 | > 50 | – | – | – |
| Cn1nc(C(F)(F)F)cc1-c1ccc(N(Cc2ccc(Cl)cc2)C(=O)c2ccc(C(F)(F)F)c(Cl)c2)cc1O [NUCC-0202423] | < 5 | > 50 | – | – | – |
| Cn1nc(C(N)=O)cc1-c1ccc(OCc2ccc(Cl)cc2)c(-c2ccc(Cl)c(C(F)(F)F)c2)c1O [NUCC-0202526] | 10 to 50 | > 50 | – | – | – |
| Cn1nc(-c2ccc(N(Cc3ccc(Cl)cc3)C(=O)c3ccc(C(F)(F)F)cc3Cl)cc2O)cc1C(F)(F)F [NUCC-0202708] | – | > 50 | > 50 | – | – |
| Cn1nc(C(F)(F)F)cc1-c1ccc(N(Cc2ccc(Cl)cc2)C(=O)c2ccccc2Cl)cc1O [NUCC-0202712] | 10 to 50 | > 50 | – | – | – |
| Cn1nc(C(F)(F)F)cc1-c1ccc(N(Cc2ccc(Cl)cc2)C(=O)c2cncc(F)c2)cc1O [NUCC-0202692] | 5 to 10 | > 50 | – | – | – |
| Cn1nc(C(F)(F)F)cc1-c1ccc(N(Cc2ccc(Cl)cc2)C(=O)c2ccc(F)cc2)cc1O [NUCC-0202711] | 5 to 10 | > 50 | – | – | – |
